The values that follow come from patent publication US20240269139A1, “COMPOUNDS FOR TARGETED PROTEIN DEGRADATION OF KINASES” (DANA-FARBER CANCER INSTITUTE, INC., priority 2020, published 2024).

Assay [1] has as its target T1, protein kinases (human kinome) (Homo sapiens, UniProt Q969Z0).
T1 sequence (Q969Z0 108-631): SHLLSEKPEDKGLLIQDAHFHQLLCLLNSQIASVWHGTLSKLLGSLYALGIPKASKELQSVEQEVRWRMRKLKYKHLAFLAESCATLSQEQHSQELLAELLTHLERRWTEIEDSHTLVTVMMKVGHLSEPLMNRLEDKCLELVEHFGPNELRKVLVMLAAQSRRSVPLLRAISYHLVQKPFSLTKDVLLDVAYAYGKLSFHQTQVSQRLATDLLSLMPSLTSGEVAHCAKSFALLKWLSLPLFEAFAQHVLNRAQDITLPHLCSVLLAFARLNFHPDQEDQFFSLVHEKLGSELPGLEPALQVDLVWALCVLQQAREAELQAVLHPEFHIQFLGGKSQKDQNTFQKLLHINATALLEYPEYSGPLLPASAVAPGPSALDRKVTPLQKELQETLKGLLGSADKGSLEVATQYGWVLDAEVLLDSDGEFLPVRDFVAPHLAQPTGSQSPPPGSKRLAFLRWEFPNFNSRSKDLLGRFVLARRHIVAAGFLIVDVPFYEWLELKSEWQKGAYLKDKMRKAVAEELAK
It counts as cell-based. As to conditions: Accession Q969Z0-1; experiment wp084; direction down.

Assay [2] deals with protein kinases (human kinome) (Homo sapiens, UniProt P11802). It counts as cell-based. Particulars: experiment wp135, 8 hr.
Chain of protein kinases (human kinome) (Homo sapiens, UniProt P11802) (P11802 whole entry): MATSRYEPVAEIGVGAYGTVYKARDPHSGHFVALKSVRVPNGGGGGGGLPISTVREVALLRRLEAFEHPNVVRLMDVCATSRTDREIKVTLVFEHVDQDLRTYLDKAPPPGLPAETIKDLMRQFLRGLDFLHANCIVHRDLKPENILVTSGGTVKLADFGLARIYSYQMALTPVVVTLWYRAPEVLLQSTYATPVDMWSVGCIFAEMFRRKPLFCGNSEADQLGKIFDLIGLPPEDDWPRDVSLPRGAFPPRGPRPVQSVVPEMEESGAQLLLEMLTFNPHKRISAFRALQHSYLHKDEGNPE
Assay [3] has as its target protein kinases (human kinome) (Homo sapiens, UniProt P31751). It counts as cell-based. As to conditions: AKT2 (P31751).
Assay [4] deals with protein kinases (human kinome) (Homo sapiens, UniProt Q9Y243). It counts as cell-based. As to conditions: AKT3 (Q9Y243-1).
Chain of protein kinases (human kinome) (Homo sapiens, UniProt Q9Y243) (Q9Y243 whole entry): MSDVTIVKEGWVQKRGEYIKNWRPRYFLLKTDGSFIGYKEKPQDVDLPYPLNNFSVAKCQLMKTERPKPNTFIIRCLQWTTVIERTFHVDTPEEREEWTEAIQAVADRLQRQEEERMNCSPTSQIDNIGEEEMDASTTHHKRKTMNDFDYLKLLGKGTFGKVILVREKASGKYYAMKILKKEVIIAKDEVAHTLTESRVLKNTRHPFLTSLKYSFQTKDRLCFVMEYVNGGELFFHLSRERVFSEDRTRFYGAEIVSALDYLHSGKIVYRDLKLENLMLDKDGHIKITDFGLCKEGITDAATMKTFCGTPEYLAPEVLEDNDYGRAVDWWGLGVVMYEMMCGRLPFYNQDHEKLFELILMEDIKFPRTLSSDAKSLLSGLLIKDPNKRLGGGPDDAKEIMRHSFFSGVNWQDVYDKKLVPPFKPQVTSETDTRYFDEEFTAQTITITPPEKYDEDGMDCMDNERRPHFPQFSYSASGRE
In assay [5] the target is T2, protein kinases (human kinome) (Homo sapiens, UniProt Q9UEE5).
T2 sequence (Q9UEE5 1-414): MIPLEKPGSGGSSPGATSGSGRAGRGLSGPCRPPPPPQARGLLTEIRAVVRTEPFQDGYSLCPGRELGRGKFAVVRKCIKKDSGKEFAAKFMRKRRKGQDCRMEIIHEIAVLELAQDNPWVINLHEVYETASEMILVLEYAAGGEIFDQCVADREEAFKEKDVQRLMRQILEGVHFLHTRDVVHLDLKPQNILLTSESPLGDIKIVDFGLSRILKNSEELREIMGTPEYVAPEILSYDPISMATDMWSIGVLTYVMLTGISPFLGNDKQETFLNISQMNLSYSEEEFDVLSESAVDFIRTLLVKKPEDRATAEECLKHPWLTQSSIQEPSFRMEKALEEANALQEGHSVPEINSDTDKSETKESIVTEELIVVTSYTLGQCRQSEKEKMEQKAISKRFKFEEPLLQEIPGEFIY
It counts as cell-based. As to conditions: STK17A Q9UEE5.

In assay [6] the target is protein kinases (human kinome) (Homo sapiens, UniProt P31749). It counts as cell-based. As to conditions: for logFC: AKT1 (P31749).
Chain of protein kinases (human kinome) (Homo sapiens, UniProt P31749) (P31749 whole entry): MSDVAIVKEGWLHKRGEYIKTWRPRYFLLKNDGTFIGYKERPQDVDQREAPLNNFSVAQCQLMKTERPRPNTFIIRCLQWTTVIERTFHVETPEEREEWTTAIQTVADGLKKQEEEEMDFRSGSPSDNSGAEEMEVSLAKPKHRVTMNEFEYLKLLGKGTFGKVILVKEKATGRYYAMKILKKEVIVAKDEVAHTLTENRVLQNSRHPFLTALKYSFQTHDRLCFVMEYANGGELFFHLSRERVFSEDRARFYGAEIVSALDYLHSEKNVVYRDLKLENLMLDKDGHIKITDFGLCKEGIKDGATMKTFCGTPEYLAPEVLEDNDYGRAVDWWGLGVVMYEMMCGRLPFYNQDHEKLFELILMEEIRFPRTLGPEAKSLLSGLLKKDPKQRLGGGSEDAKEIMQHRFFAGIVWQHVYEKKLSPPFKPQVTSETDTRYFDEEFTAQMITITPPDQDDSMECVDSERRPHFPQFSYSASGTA
Assay [7] addresses T3, extended human kinome (kinase-like proteins) (Homo sapiens, UniProt Q9UHH9).
T3 sequence (Q9UHH9 1-426): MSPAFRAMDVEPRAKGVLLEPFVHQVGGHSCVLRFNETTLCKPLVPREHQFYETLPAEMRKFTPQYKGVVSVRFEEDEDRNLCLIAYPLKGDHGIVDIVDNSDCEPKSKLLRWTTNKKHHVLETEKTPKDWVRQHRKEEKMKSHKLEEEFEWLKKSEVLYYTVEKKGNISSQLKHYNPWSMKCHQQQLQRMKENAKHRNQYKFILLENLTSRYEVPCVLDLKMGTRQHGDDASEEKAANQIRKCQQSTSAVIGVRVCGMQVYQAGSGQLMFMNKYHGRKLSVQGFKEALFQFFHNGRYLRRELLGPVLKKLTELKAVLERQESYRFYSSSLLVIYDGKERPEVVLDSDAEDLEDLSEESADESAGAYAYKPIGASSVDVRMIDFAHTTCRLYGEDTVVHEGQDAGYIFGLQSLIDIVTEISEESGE
As to the kind of experiment: Whole cell quantitative proteomics: extended kinome hits. Particulars: Accession Q9UHH9.
Method: (§1) Whole cell multiplexed quantitative proteomics was employed to measure changes in abundance of the proteome in response to treatment with each of the kinase degrader molecules relative to DMSO (Table 1, Appendix I).
(§2) Cells were treated with DMSO (biological triplicate) or degrader at indicated dose and time and cells were harvested by centrifugation. […] Precipitated protein was resuspended in 4 M Urea, 50 mM HEPES pH 7.4, followed by dilution to 1 M urea with the addition of 200 mM EPPS, pH 8. Proteins were first digested with LysC (1:50: enzyme:protein) for 12 hours at room temperature. The LysC digestion was diluted to 0.5 M Urea with 200 mM EPPS pH 8 followed by digestion with trypsin (1:50; enzyme:protein) for 6 hours at 37° C. Tandem mass tag (TMT) reagents (Thermo Fisher Scientific) were dissolved in anhydrous acetonitrile (ACN) according to manufacturer's instructions. […] The 10, 11, or 16-plex labeling reactions were performed for 1.5 hours at room temperature and the reaction quenched by the addition of hydroxylamine to a final concentration of 0.3% for 15 minutes at room temperature. The sample channels were combined at a 1:1 ratio, desalted using C18 solid phase extraction cartridges (Waters®) and analyzed by LC-MS for channel ratio comparison. Samples were then combined using the adjusted volumes determined in the channel ratio analysis and dried down in a speed vacuum. The combined sample was then resuspended in 1% formic acid, and acidified (pH 2-3) before being subjected to desalting with C18 SPE (Sep-Pak®, Waters®). Samples were then offline fractionated into 96 fractions by high pH reverse-phase HPLC (Agilent® LC1260) through an aeris peptide xb-c18 column (Phenomenex®) with mobile phase A containing 5% acetonitrile and 10 mM NH4HCO3 in LC-MS grade H2O, and mobile phase B containing 90% acetonitrile and 10 mM NH4HCO3 in LC-MS grade H2O (both pH 8.0). The 96 resulting fractions were then pooled in a non-continuous manner into 24 fractions and desalted using C18 solid phase extraction plates (SOLA®, Thermo Fisher Scientific) followed by subsequent mass spectrometry analysis.
(§3) Data were collected using an Orbitrap Fusion™ Lumos™ mass spectrometer (Thermo Fisher Scientific, San Jose, CA, USA) coupled with a Proxeon EASY-nLC™ 1200 LC pump (Thermo Fisher Scientific) or an Orbitrap Eclipse™ Tribrid™ mass spectrometer (Thermo Fisher Scientific, San Jose, CA, USA) coupled with an UltiMate™ 3000 RSLCnano System. Peptides were separated on an EasySpray™ ES803a/ES803a.rev2 75 μm inner diameter microcapillary column (ThermoFisher Scientific).
(§4) Data dependent MS2 spectra were acquired in the ion trap with a normalized collision energy (NCE) set at 35%, AGC target set to 1.8×10^4 and a maximum injection time of 120 ms. MS3 scans were acquired in the Orbitrap with HCD collision energy set to 55%. AGC target set to 2×10^5, maximum injection time of 150 ms, resolution at 50,000 and with a maximum synchronous precursor selection (SPS) precursors set to 10.
(§5) Proteome Discoverer™ 2.1, 2.2 or 2.4 (Thermo Fisher Scientific) was used for .RAW file processing and controlling peptide and protein level false discovery rates, assembling proteins from peptides, and protein quantification from peptides.

For assay [8], the target named is T4, protein kinases (human kinome) (Homo sapiens, UniProt O95835).
T4 sequence (O95835 1-1130): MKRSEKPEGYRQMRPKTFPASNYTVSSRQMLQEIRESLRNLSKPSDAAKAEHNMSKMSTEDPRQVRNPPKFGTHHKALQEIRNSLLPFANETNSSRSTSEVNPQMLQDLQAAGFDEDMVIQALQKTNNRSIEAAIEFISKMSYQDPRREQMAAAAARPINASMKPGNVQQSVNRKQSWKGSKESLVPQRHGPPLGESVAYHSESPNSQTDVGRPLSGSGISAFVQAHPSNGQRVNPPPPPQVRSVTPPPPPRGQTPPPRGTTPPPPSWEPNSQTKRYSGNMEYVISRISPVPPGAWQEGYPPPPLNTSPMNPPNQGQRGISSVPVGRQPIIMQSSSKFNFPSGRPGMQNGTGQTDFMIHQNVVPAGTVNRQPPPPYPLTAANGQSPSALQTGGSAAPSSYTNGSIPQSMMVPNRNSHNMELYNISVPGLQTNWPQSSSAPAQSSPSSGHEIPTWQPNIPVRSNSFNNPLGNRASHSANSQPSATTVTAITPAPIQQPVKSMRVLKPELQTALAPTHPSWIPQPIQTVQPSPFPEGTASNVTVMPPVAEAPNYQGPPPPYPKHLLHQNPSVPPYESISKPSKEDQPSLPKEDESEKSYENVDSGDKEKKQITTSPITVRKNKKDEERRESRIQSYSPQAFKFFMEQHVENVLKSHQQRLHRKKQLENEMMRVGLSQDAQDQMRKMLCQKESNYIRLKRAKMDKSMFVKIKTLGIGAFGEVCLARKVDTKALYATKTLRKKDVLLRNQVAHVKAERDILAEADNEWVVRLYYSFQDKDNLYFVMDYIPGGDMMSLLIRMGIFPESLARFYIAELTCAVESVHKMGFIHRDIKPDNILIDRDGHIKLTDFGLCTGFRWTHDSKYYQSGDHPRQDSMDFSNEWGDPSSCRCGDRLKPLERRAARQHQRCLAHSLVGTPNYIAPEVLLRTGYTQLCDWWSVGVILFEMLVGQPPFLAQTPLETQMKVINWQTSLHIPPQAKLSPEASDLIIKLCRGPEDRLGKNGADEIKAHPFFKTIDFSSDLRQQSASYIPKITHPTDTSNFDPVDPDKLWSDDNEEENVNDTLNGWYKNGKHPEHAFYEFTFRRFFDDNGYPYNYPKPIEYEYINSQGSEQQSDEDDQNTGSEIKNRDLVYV
It counts as cell-based. Particulars: LATS1 O95835; experiment wp195.

Assay [9] deals with protein kinases (human kinome) (Homo sapiens, UniProt O14874). It counts as cell-based. Particulars: BCKDK (O14874), experiment wp137.
Assay [10] deals with protein kinases (human kinome) (Homo sapiens, UniProt Q15118). It counts as cell-based. As to conditions: PDK1 Q15118; experiment wp137.
Chain of protein kinases (human kinome) (Homo sapiens, UniProt Q15118) (Q15118 29-436): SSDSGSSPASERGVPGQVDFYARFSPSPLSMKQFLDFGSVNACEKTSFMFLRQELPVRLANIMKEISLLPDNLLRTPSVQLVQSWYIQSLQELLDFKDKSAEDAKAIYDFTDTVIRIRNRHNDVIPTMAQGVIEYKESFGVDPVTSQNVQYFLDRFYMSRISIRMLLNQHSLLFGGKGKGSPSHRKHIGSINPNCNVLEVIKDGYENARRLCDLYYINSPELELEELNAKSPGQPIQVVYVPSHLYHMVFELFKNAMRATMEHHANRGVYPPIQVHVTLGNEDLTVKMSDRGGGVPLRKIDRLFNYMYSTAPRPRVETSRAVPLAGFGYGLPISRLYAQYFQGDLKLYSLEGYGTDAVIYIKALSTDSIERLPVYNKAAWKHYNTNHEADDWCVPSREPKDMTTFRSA
Assay [11] deals with extended human kinome (kinase-like proteins) (Homo sapiens, UniProt P27144). As to the kind of experiment: Whole cell quantitative proteomics: extended kinome hits. As to conditions: experiment wp137.
Chain of extended human kinome (kinase-like proteins) (Homo sapiens, UniProt P27144) (P27144 whole entry): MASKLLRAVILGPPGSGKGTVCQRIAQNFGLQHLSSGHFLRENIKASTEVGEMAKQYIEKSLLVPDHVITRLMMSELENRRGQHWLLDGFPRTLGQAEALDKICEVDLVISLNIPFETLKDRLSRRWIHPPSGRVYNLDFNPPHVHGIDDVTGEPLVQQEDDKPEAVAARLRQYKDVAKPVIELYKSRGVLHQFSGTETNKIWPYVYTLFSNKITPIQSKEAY
Method: as §1, §2, §3, §4, §5
Assay [12] addresses T5, extended human kinome (kinase-like proteins) (Homo sapiens, UniProt Q7L8L6).
T5 sequence (Q7L8L6 28-764): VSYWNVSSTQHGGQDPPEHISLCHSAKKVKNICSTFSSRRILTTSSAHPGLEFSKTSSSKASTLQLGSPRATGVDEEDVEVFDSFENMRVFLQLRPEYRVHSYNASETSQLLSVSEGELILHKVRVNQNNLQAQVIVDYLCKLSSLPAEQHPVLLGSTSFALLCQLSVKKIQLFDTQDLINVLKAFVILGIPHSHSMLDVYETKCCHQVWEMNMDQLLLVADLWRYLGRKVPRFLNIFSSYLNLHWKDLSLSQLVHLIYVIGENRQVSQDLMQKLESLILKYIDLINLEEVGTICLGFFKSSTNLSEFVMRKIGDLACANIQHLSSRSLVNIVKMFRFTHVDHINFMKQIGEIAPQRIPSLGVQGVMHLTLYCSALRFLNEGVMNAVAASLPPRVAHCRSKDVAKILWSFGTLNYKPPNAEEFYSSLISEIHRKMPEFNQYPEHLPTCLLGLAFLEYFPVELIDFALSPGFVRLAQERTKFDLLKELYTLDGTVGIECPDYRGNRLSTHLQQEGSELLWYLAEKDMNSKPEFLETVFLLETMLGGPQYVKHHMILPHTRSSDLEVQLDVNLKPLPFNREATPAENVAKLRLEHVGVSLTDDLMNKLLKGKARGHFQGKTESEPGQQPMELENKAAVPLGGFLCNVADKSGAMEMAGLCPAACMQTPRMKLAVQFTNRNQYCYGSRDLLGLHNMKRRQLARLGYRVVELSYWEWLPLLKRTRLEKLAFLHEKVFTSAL
The assay is described as above. Particulars: Accession Q7L8L6; experiment wp137.
Method: as §1, §2, §3, §4, §5

Where [13] appears, read: experiment wp135, 8 hr, direction down.
[14] abbreviates: experiment wp104, direction down.
Where [15] appears, read: experiment wp137, direction down.

Like-named read-outs stand apart in the source and are kept apart here.

Chain of protein kinases (human kinome) (Homo sapiens, UniProt P31751) (P31751 whole entry): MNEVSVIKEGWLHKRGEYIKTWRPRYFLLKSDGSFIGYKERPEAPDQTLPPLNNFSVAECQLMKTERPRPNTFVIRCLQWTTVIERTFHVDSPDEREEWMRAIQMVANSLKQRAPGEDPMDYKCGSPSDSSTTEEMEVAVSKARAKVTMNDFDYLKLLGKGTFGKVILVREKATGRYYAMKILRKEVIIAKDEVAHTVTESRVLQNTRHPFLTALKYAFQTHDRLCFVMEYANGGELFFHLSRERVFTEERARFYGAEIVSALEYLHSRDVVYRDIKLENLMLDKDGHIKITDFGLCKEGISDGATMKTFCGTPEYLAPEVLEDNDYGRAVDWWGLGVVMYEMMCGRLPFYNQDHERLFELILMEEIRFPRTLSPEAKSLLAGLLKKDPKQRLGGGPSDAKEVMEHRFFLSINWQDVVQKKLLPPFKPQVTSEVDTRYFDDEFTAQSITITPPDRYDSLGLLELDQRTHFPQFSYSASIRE

Consider `CC(=O)c1c(C)c2cnc(Nc3ccc(N4CCN(CCOCCOCCOCCNC(=O)COc5cccc6c5C(=O)N(C5CCC(=O)NC5=O)C6=O)CC4)cn3)nc2n(C2CCCC2)c1=O` (stereo not shown) [BS.J.03.123], for which, in assay [1], the “logFC TBRG4” value is −0.5.

As to `C[C@@H]1C[C@@H](O)c2ncnc(N3CCN(C(=O)[C@H](CNCCCCCCCCCCc4cccc5c4C(=O)N(C4CCC(=O)NC4=O)C5=O)c4ccc(Cl)cc4)CC3)c21` (stereo partly shown) [INY.03.041_01], the “logFC CDK4 (P11802)” value in assay [2] was −0.3281. Besides, the logFC in assay [3] (experiment wp135, 8 hr) is −2.274; in assay [3] (setting [13]), −2.274; in assay [4] (experiment wp135, 8 hr), −2.215; in assay [4] (setting [13]), −2.215; in assay [5] (experiment wp135, 8 hr), −0.497; in assay [6] (experiment wp135, 8 hr), −2.273. Moreover, in assay [6] (experiment wp135, 8 hr), the “logFC of AKT1 (P31749)” value is recorded as −2.273. The “logFC IP6K2” value in [7] (experiment wp135, 8 hr) is −0.6456.

Take `Cc1ncsc1-c1ccc([C@H](C)NC(=O)[C@@H]2C[C@@H](O)CN2C(=O)[C@@H](NC(=O)CCCCOc2ccccc2-c2ccc3nc(-c4cccnc4N)n(-c4ccc(C5(N)CCC5)cc4)c3n2)C(C)(C)C)cc1` [INY.04.125.01]: in assay [5] (experiment wp195), the logFC is reported as −0.4084 and the “logFC STK17A” value is listed as −0.4084. In assay [8], the logFC is recorded as −0.4176 and the “logFC LATS1” value is given as −0.4176. Besides, in assay [7] (experiment wp195), the “logFC IP6K2” value is listed as −0.4946.

Regarding `C[C@@H]1C[C@@H](O)c2ncnc(N3CCN(C(=O)[C@H](CNCCCCCCCCNC(=O)COc4cccc5c4C(=O)N(C4CCC(=O)NC4=O)C5=O)c4ccc(Cl)cc4)CC3)c21` (stereo partly shown) [INY.02.164], the logFC in [3] (experiment wp104) is listed as −1.078; in assay [3] (setting [14]) it was −1.078; in assay [3] (experiment wp137), −3.156; in assay [3] (setting [15]), −3.156; in assay [9], −0.36; in assay [9] (direction down), −0.36. Further, the logFC in assay [10] is given as −0.4419; in assay [4] (experiment wp104), −1.478; in assay [4] (setting [14]), −1.478; in assay [4] (experiment wp137) it was −3.147; in assay [4] (setting [15]) it was −3.147; in [6] (experiment wp104), −0.7926. In assay [6] (experiment wp137), the logFC is −3.206. Besides, the “logFC PDK1” value in assay [10] is reported as −0.4419. Moreover, the “logFC of AKT1 (P31749)” value in [6] (Experiment wp104) is on record as −0.7926; in assay [6] (experiment wp137) it was −3.206. For the same molecule, the “logFC AK4 (P27144)” value in [11] is listed as −0.5601. The “logFC IP6K2” value in assay [7] (experiment wp137) is reported as −0.5449. The “logFC FASTKD5” value in [12] is given as −0.3422.
